From US6040338A, “N,n-bis(sulfonyl)hydrazines useful as antineoplastic agents” (Yale University, priority 1997, dated 2000)

What was measured:
[1] = Activation by hydrolysis in phosphate buffer; assay type: physicochemical
Procedure: (§1) The rates of activation of compounds 10a-h were measured in 1 mM phosphate buffer (pH 7.4, 37° C.) alone, 1 mM phosphate buffer containing 5 mM GSH (pH 7.4, 37° C.), and in 1 mM phosphate buffer containing 5 mM GSH and 17.5 U/ml of GST (pH 7.4, 37° C.) (Table 3).

[2] = Activation by thiolysis (GSH); assay type: in vitro ADME
Procedure: as §1

[3] = tested on: L1210 leukemia; experiment: Survival time and body weight of mice bearing the L1210 leukemia; assay type: in vivo, mice (CD2 F1); details: Table 4; i.p. once daily for 6 days at optimum daily dose (10a 60, 10b 25, 10c 12.5, 10d-h 30 mg/kg)
Procedure: The ascites cell form of leukemia L1210 was obtained from the Frederick Cancer Research Facility, Division of Cancer Treatment Tumor Repository of the National Cancer Institute, and was maintained by serial passage in tissue culture. Every 8 weeks, tumor cells were injected intraperitoneally into 5 donor CD2 F1 mice 8-10 weeks of age and were allowed to grow for 7 days. The peritoneal fluid was withdrawn, and the suspension was centrifuged for 5 min at 1600×g. The supernatant was decanted, and 10^5 cells/ml were seeded into 10 ml of RPMI 1640 medium supplemented with 10% fetal bovine serum and 1% L-glutamine (200 mM) and once again maintained in culture. To assay for antitumor activity, 0.1 ml of the cell suspension containing 10^5 leukemia cells was injected into each recipient mouse. […] Each drug was administered intraperitoneally as a solution in 100% dimethyl sulfoxide, in a volume not exceeding 25 μl. […] Mice were weighed during the course of the experiments, and the percentage change in body weight from onset to termination of therapy was used as an indication of drug toxicity. Determination of the sensitivity of neoplasms to these agents was based upon the prolongation of survival time afforded by the drug treatments.
The antitumor activity of compounds 10a-h and 16 were assessed in mice bearing the L1210 leukemia. The results of these tests are summarized in Tables 4 and 5 which show the effects of 2-alkoxycarbonyl- and 2-aryloxycarbonyl-1,2-bis(methylsulfonyl)-1-(2-chloroethyl)hydrazines on the survival time of mice bearing the L1210 leukemia.
In Table 4, the optimum daily dose was administered once per day for six consecutive days, beginning 24 hours after tumor implantation, with 5-10 mice being used per group. In Table 5, multiple dosages of compound 16 are indicated. "Av Δ wt" refers to the average percent change in body weight from onset to termination of therapy. "% T/C" refers to the average survival time of treated/control mice×100. Cures (60-day survivors) are listed separately and are not included in this calculation.

[4] = tested on: CHO-K1/dhfr^- cells; experiment: Colony-forming assay, aerobic and hypoxic CHO-K1/dhfr^- cells; assay type: cell-based, Chinese hamster; details: FIGS. 3 and 4
Procedure: (§2) The ability of compounds 10h, 11, 12, and 14 to exert preferential toxicity to hypoxic cells was evaluated using the EMT6 mammary carcinoma by methodology described previously (Rockwell, S., Keyes, S. R., and Sartorelli, A. C. Rad. Res. 116: 100-113 (1988); Keyes, S. R., Rockwell, S., and Sartorelli, A. C. Cancer Res. 45: 213-216 (1985)). Briefly, exponentially growing monolayers of EMT6 (or CHO-K1/dhfr clone) were exposed to a continuously flowing 95% N2 /5% CO2 humidified atmosphere for 2 h to produce radiobiologic hypoxia. Parallel flasks were maintained similarly in humidified 95% air/5% CO2. Without breaking the hypoxia, cells were exposed to various concentrations of the test agent for 1 hr. Cell survival was then measured by colony formation.
CHO-K1/dhfr cells were used to examine the role of the reductive enzymes NADPH:cytochrome P450 reductase and DT-diaphorase in the activation of compounds 10h and 12 in situ. Clones of CHO-K1/dhfr^- cells transfected with and overexpressing cDNAs for each of these enzymes were used for this purpose (Belcourt, M. F., Hodnick, W. F., Rockwell, S., and Sartorelli, A. C. Proc. Natl. Acad. Sci. USA 93: 456-460 (1996); Belcourt, M. F., Hodnick, W. F., Rockwell, S., and Sartorelli, A. C. Biochem. Pharmacol. 51: 1669-1678 (1996)).
(§3) The cytotoxicity of compound loh was evaluated in aerobic and hypoxic Chinese hamster ovary (CHO-K1/dhfr^-) cells transfected with and overexpressing cDNAs for NADPH:cytochrome P450 reductase (27-fold more than parental cells, FIG. 3) or DT-diaphorase (133-fold more than parental cells, FIG. 4), two reductases with the potential to activate compound 10h. In FIGS. 3 and 4, points are means of duplicate determinations. […]
(§4) Compound 12 was evaluated for its ability to exert preferential toxicity to hypoxic EMT6 cells relative to their aerobic counterparts. […]

[5] = tested on: EMT6 mammary carcinoma cells; experiment: Colony-forming assay, EMT6 cells under hypoxic or aerobic conditions; assay type: cell-based, mouse; details: 40 μM, 1 hr exposure
Procedure: as §2
The cytotoxicity of compound 10h was evaluated against EMT6 mouse mammary carcinoma cells in vitro under aerobic and hypoxic conditions using the colony-forming assay described above. FIG. 1 depicts the survival of EMT6 cells exposed to various concentrations of compound 10h for 1 hr under hypoxic or aerobic conditions in vitro. Points are the geometric means of two or more independent determinations of surviving fractions. The SEMs are shown where n≥3 and where the error is larger than the point size. Open triangles represent aerobic data points and filled triangles represent hypoxic data points.
Compound 12 was evaluated for its ability to exert preferential toxicity to hypoxic EMT6 cells relative to their aerobic counterparts. […] Points are geometric means of two or more independent determinations of surviving fractions. The SEMs are shown where n≥3 and where the error is larger than the point size. Open triangles are aerobic data points, and filled triangles are hypoxic data points. […] Points are means of duplicate determinations. Open triangles are parental-aerobic; filled triangles are parental-hypoxic; open circles are NADPH:cytochrome P450 reductase-transfected-aerobic; filled circles are NADPH:cytochrome P450 reductase-transfected-hypoxic.

[6] = tested on: CHO-K1/dhfr^- cells transfected with DT-diaphorase cDNA; experiment: Colony-forming assay, CHO-K1/dhfr^- cells overexpressing DT-diaphorase; assay type: cell-based, Chinese hamster; details: 133-fold overexpression versus parental; FIG. 4
Procedure: as §2
CHO-K1/dhfr cells were used to examine the role of the reductive enzymes NADPH:cytochrome P450 reductase and DT-diaphorase in the activation of compounds 10h and 12 in situ. […]
as §3, with “10h.” for “10h. In FIGS. 3 and 4, points are means of duplicate determinations.”

[7] = tested on: CHO-K1/dhfr^- cells transfected with NADPH:cytochrome P450 reductase cDNA; experiment: Colony-forming assay, CHO-K1/dhfr^- cells overexpressing NADPH:cytochrome P450 reductase; assay type: cell-based, Chinese hamster; details: 27-fold overexpression versus parental; FIG. 3
Procedure: as §2, with “formation. […]” for “formation.”
as §3, with “10h.” for “10h. In FIGS. 3 and 4, points are means of duplicate determinations.”
as §4

[8] = tested on: GST; experiment: Activation by GST-catalyzed thiolysis; assay type: in vitro ADME
Procedure: as §1

## CS(=O)(=O)N(CCCl)N(C(=O)OCc1ccc([N+](=O)[O-])cc1)S(C)(=O)=O [Compound 10h, 1,2-Bis(methylsulfonyl)-1-(2-chloroethyl)-2-[(4-nitrobenzyloxy)carbonyl]hydrazine]
[1]; 1 mM phosphate buffer, pH 7.4, 37° C.
  Calculated Activation Rate due to Hydrolysis: not detected
[1]; phosphate buffer, physiological pH
  hydrolysis in phosphate buffer (in words): little or no hydrolysis
[2]; 1 mM phosphate buffer, 5 mM GSH, pH 7.4, 37° C.
  Calculated Activation Rate due to Thiolysis (5 mM GSH): 0.06 nmol/mL/min
[2]; reacted with GSH
  rate of thiolysis with GSH (in words): extremely slow rate of thiolysis
[3]
  Av Δ wt (average percent change in body weight from onset to termination of therapy): -8.6%
[4]
  sensitivity of CHO-K1/dhfr^- cells compared with EMT6 cells (in words): less sensitive
[4]; hypoxic versus aerobic
  sensitivity of hypoxic CHO-K1/dhfr^- cells compared with aerobic counterparts (in words): more sensitive
[5]; aerobic (FIG. 1)
  toxicity to aerobic EMT6 cells (in words): relatively minor toxicity
[5]; Mus musculus, EMT6, hypoxic (FIG. 1), read-out: kill of hypoxic EMT6 cells
  log reduction at 40 µM: 2
[6]
  kill of hypoxic or oxygenated cells on overexpression of DT-diaphorase (in words): did not result in an increase in the kill of either hypoxic or oxygenated cells
[7]
  sensitivity of cells overexpressing NADPH:cytochrome P450 reductase (in words): Increased sensitivity
[8]; 1 mM phosphate buffer, 5 mM GSH, 17.5 U/ml GST, pH 7.4, 37° C.
  Calculated Activation Rate due to Catalyzed Thiolysis (5 mM GSH + 17.5 U/ml GST): 20.5 nmol/mL/min
[8]; GSH + GST
  rate of activation when thiolysis is catalyzed by GST (in words): relatively high rate of activation
